{"source": "patent US12310957B2", "about": "“Bowel cleansing composition” (priority 2013, dated 2025)", "origin": "cited, not measured here", "system": "patients undergoing colonoscopy", "details": "Nunes et al. 2008, scale proposed by the authors", "data": [{"smiles": "OC[C@@H](O)[C@@H](O)[C@H](O)[C@H](O)CO", "note": "[mannitol]", "values": [{"measurement": "rate of adequate bowel cleansing", "result": 75, "unit": "%"}]}]}
